Experimental data published in the supplement of paper PMC6206229.
Converted amounts (≈) assume the structure as drawn.

Key:
[1] = test system: Staphylococcus aureus ATCC 29213 (MSSA); assay: minimum inhibitory concentration; extreme values may be limits of the assay
How it was run: (§1)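 Following CLSI guidance, methicillin-susceptible and methicillin-resistant Staphylococcus aureus were exposed to compounds from 0 to 100 µM in 96-well plates for 24 h at 37°C, then to 30 µl of 0.015% resazurin for 2–4 h. The minimum inhibitory concentration was read as the lowest concentration with no change from blue to pink. Testing was done at least twice in triplicate with positive controls on each plate.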

[2] = test system: Staphylococcus aureus ATCC 700699 (MRSA); assay: as above
How it was run: as §1

| SMILES | minimum inhibitory concentration [1] [µM] | minimum inhibitory concentration [2] [µM] |
| --- | --- | --- |
| Nc1ncnc2c1c(Cc1cccc3ccccc13)nn2CC1CCNCC1 | > 50 | > 50 |
| CO[C@@H](C(=O)N1Cc2[nH]nc(NC(=O)c3ccc(N4CCN(C)CC4)cc3)c2C1)c1ccccc1 | > 50 | > 50 |
| CNc1nnc(Sc2cnn(-c3ccccc3)c(=O)c2Cl)s1 | > 50 | > 50 |
| O=C(NC1=NCCS1)c1sc2cc(F)ccc2c1Cl | > 50 | > 50 |
| CCNC(=O)C(C)Nc1nc(-c2cccnc2)nc2sc(C)c(C)c12 (centres undefined) | > 50 | > 50 |
| O=C(NCc1nnc2n1CCCCC2)c1ccc(-c2ccc(F)cc2)o1 | > 50 | > 50 |
| O=C(NCCN1CCCC1)c1cc(NCCN2CCOCC2)nc2ccc(Cl)cc12 | 50 (≈ 21.6 µg/mL) | 50 (≈ 21.6 µg/mL) |
| Cc1cc(C)cc(COc2ccc3c(C)c(CCC(=O)O)c(=O)oc3c2C)c1 | > 50 | > 50 |
| CC(C)(C)C(=O)N(CCCCCCN1C[C@H](O)[C@@H](O)[C@H](O)[C@H]1CO)C1CCCCCC1 | > 50 | > 50 |
| Nc1nccc2ccc(Oc3ccncc3)cc12 | 50 (≈ 11.9 µg/mL) | 50 (≈ 11.9 µg/mL) |
| O=C(Nc1cccc(Cl)c1)c1cnc(N2CCN(c3ccncc3)CC2)c(Cl)c1 | > 50 | > 50 |
| Nc1ncc(-c2cn[nH]c2)cc1-c1nc2cc(Cl)cnc2[nH]1 | > 50 | > 50 |
| COc1cccc(-c2cc3c(Nc4cccnc4)nccc3[nH]2)c1 | > 50 | > 50 |
| CN1CCC(c2cc(-c3ccncc3)c(-c3ccc(F)cc3)[nH]2)CC1 | > 50 | > 50 |
| COc1ccc(C2CC(c3cccs3)=NN2C(=O)c2ccco2)cc1OC (centres undefined) | > 50 | > 50 |
| Cc1ccc(Oc2ccc(NC(=O)CNc3ccccc3N3CCCC3=O)cc2)cc1 | > 50 | > 50 |
| Cc1ccc(NC(=O)c2cc(S(=O)(=O)NC(C)(C)C)ccc2C)nc1 | > 50 | > 50 |
| Cc1cccc(NC(=O)c2cc(S(=O)(=O)N(C)c3ccc(F)cc3)ccc2Cl)n1 | > 50 | > 50 |
| COc1ccc(OC)c(NCc2ccc3nc(N)nc(N)c3c2Cl)c1 | 50 (≈ 18 µg/mL) | 50 (≈ 18 µg/mL) |
| CS(=O)(=O)N1CCC(Cn2nc(Cc3cccc4ccccc34)c3c(N)ncnc32)CC1 | > 50 | > 50 |
| CCOC(=O)c1c(NC(=O)c2c(F)c(F)c(F)c(F)c2F)sc(C(N)=O)c1C | > 50 | > 50 |
| NCCC(O)C(=O)N[C@@H]1C[C@H](N)[C@@H](OC2O[C@H](CN)[C@@H](O)[C@H](O)[C@H]2O)[C@H](O)C1OC1O[C@H](CO)[C@@H](O)[C@H](N)[C@H]1O (some centres undefined) | > 50 | > 50 |
| COc1ccc(C2=NN(C3CCCCCC3)C(=O)C2(C)C)cc1OCCCCOc1ccc(-c2nn[nH]n2)cc1 | 50 (≈ 27.3 µg/mL) | 50 (≈ 27.3 µg/mL) |

| SMILES | minimum inhibitory concentration [1] [µM] | minimum inhibitory concentration [2] [µM] |
| --- | --- | --- |
| COc1ccc(N(CCc2cccc(C)n2)C(=O)C2CCCCC2)cc1 | > 50 | > 50 |
| O=C(NCc1cc(Cl)cc(Cl)c1)c1c(C(F)(F)F)nc2ccccn12 | > 50 | > 50 |
| O=C(C1CCN(c2nnc(-n3cccc3)s2)CC1)N1CCC(Cc2ccccc2)CC1 | > 50 | > 50 |
| COc1ccc(OC(C)C(=O)Nc2ccc(Cl)cc2C)cc1 (centres undefined) | > 50 | > 50 |
| O=C(NC1CCCCC1)N1CCN(Cc2ccc3c(c2)OCO3)CC1 | > 50 | > 50 |
| CC1CS(=O)(=O)CCN1/N=C/c1ccc([N+](=O)[O-])o1 (centres undefined) | > 50 | > 50 |
| CC(C)n1nc(-c2cc3c(Cl)cccc3[nH]2)c2c(N)ncnc21 | > 50 | > 50 |
| C[C@]1(O)C[C@@H](c2nc(-c3ccc4ccc(-c5ccccc5)nc4c3)c3c(N)nccn32)C1 | > 50 | > 50 |
| c1cncc(NCc2ccc(-c3cc4ccncc4cc3OC3CCNCC3)s2)c1 | > 50 | > 50 |
| CCc1nc2ccc(Cl)cn2c1C(=O)NCc1ccc(N2CCC(c3ccc(OC(F)(F)F)cc3)CC2)cc1 | > 50 | > 50 |
| O=C(NCc1ccoc1)N1CCN(Cc2ccc3c(c2)OCO3)CC1 | > 50 | > 50 |
| O=C([C@@H](c1ccc(Cl)cc1)c1cccnc1)N1CCN(c2ccc(C(F)(F)F)cc2)CC1 | 50 (≈ 23 µg/mL) | 50 (≈ 23 µg/mL) |
| Brc1cncc(-c2cc(NCCCn3ccnc3)nc(-c3ccccc3)n2)c1 | > 50 | > 50 |
| COc1cccc(-n2nnnc2S(C)(=O)=O)c1 | > 50 | > 50 |
| O=C(Nc1ccccc1)c1ccc(-c2cc3ccncc3cc2OC2CCNCC2)s1 | 50 (≈ 21.5 µg/mL) | 50 (≈ 21.5 µg/mL) |
| OCCc1ccc(Nc2nccc(-c3nnc4ccccn34)n2)cc1 | > 50 | > 50 |
| FC(F)(F)c1ccc(N(c2cccnc2)C2CCN(c3ccc(C(F)(F)F)cn3)CC2)cc1 | > 50 | > 50 |
| N=C(N)c1ccc(OCCCCCOc2ccc(C(=N)N)cc2)cc1 | 12.5 (≈ 4.26 µg/mL) | > 50 |
| NCC(=O)N1CCn2c(nc(-c3ccccc3)c2Nc2ccc3c(c2)OCO3)C1 | > 50 | > 50 |
| COc1ccc(CCN2CCC(NCc3cccc(N(C)C)c3)CC2)cc1 | > 50 | > 50 |
| CCCCc1ccc(NC(=O)Nc2ccc(O[C@H]3CCCC[C@@H]3N(C)c3ccccc3)c(F)c2)cc1 | > 50 | > 50 |
| O[C@@H](c1cc(C(F)(F)F)nc2c(C(F)(F)F)cccc12)[C@H]1CCCCN1 | 50 (≈ 18.9 µg/mL) | 25 (≈ 9.46 µg/mL) |
| Cc1ccccc1C(=O)N1N=C(Nc2ccccc2)SC1(C)C | > 50 | > 50 |

| SMILES | minimum inhibitory concentration [1] [µM] | minimum inhibitory concentration [2] [µM] |
| --- | --- | --- |
| CC1COC(Cn2cncn2)(c2ccc(Oc3ccc(Cl)cc3)cc2Cl)O1 (centres undefined) | > 50 | > 50 |
| CCC(NC(=O)c1ccccc1NC(=O)c1ccc(C)cc1)C(=O)OC (centres undefined) | > 50 | > 50 |
| CS(=O)(=O)c1ccc(C(=O)N(CC2CCCO2)c2nc3ccccc3s2)cc1[N+](=O)[O-] (centres undefined) | > 50 | > 50 |
| c1ccc(Oc2ccc(-c3cc(CN4CCOCC4)[nH]n3)cc2)cc1 | > 50 | > 50 |
| O=C(Nc1cnc2ccccc2c1)c1cccc(-n2cnnn2)c1 | > 50 | > 50 |
| CCCS(=O)(=O)N1CCC(CO)(Cc2ccccc2C(F)(F)F)CC1 | > 50 | > 50 |
| COc1ccc(-c2cnc3ccc(N4CCCC4)nn23)cc1OC | > 50 | > 50 |
| CC(C)(C)c1cc(C(=O)N2CCN(c3nccnc3C#N)CC2)n(Cc2ccccc2)n1 | > 50 | > 50 |
| O=C(Cn1ccnc1[N+](=O)[O-])NCc1ccccc1 | > 50 | > 50 |
| COc1cc(C2=NCCN2)ccc1-n1cc(-c2cccc(C3=NCCN3)c2)nn1 | > 50 | > 50 |
| Cc1cc(NCC(C)C)c2[nH]nc(-c3ccccc3)c2n1 | > 50 | > 50 |
| CCN(CC)S(=O)(=O)c1ccc(Cl)c(C(=O)Nc2ccc3nc(C)sc3c2)c1 | > 50 | > 50 |
| CCCCOC(=O)Nc1cc2nc(C3CCCCC3)[nH]c2cc1N1CCCC1 | > 50 | > 50 |
| Clc1ccc(CCNc2cc(-c3ccccc3)nc3ncnn23)cc1 | > 50 | > 50 |
| CS(=O)(=O)c1cccc(-c2cnc3[nH]cc(-c4ccc(CCC(=O)O)cc4)c3c2)c1 | > 50 | > 50 |
| CS(=O)(=O)Cc1nc2ccccc2oc1=O | > 50 | > 50 |
| Cc1ccc(S(=O)(=O)N2CCN(C(=O)c3cc(-c4ccccc4)n[nH]3)CC2)cc1 | > 50 | > 50 |
| Cc1cc(Cl)c(S(=O)(=O)N2CCCC2)cc1OCC(=O)NC1CCCCC1 | > 50 | > 50 |
| Clc1ccc(-n2cc(COc3ccnc4ccccc34)nn2)cc1 | > 50 | > 50 |
| C[C@@H]1[C@H](O)[C@@H](C)/C=C/C=C/C=C/C=C/C=C/C=C/C=C/[C@H](O[C@@H]2O[C@H](C)[C@@H](O)[C@H](N)[C@@H]2O)C[C@@H]2O[C@](O)(C[C@@H](O)C[C@@H](O)[C@H](O)CC[C@@H](O)C[C@@H](O)CC(=O)O[C@H]1C)C[C@H](O)[C@H]2C(=O)O | 50 (≈ 46.2 µg/mL) | 50 (≈ 46.2 µg/mL) |
| O=C(OCc1ccccc1)N1CCC(c2cc(-c3ccncc3)c(-c3ccc(F)cc3)[nH]2)CC1 | > 50 | > 50 |
